Columns and labels:
[1] = target: MCP chymotrypsin-like activity (Homo sapiens, UniProt P28074); assay: Inhibition of MCP chymotrypsin-like activity; format: biochemical
Description: The rank-order potency for Jurkat cell killing precisely matched the order for MCP inhibition (Table 2, below).
Inhibition of the chymotrypsin-like activity of MCP by the disclosed MCP inhibitors has been reported, but these MCP inhibitors produced relatively little inhibition on the MCP trypsin-like activity and cathepsin B, a vacuolar cysteine protease (Iqbal, M., et al. J. Med Chem. 38: 2276-2277, 1995; Iqbal, M., et al. Bioorg. Med. Chem. Lett. 6: 287-290, 1996; and Harding, C. V., et al. J. Immuno. 155: 1767-1775, 1995). Furthermore, the order of potency for inhibition of the chymotrypsin-like activity was reported to be Compound A>Compound B>Compound C by using both isolated MCP and intact murine B cells (Iqbal, M., et al. J. Med Chem. 38: 2276-2277, 1995; Iqbal, M., et al. Bioorg. Med. Chem. Lett. 6: 287-290, 1996; and Harding, C. V., et al. J. Immuno. 155: 1767-1775, 1995).

[2] = system: human Jurkat T cells; assay: Apoptosis in Jurkat T cells (flow cytometry sub-G1 DNA content, DNA fragmentation); format: cell-based; details: Jurkat T cells
Protocol: (§1) c. Treatment of cells with MCP inhibitor. Cells were treated with a specified MCP Inhibitor, a standard anticancer agent (etoposide or cisplatin), or DMSO (vehicle). During this process, morphological changes and cellular detachment (for attached cell lines) were monitored. At each time point, cells were harvested, and used for measurement of apoptosis and other biochemical events. In Example 1, infra, involving YVAD-CMK, Compound A was first added to Jurkat T cells. This was followed immediately by dividing the cells into multiple tissue culture flasks. YVAD-CMK was then added to an indicated concentration.
(§2) d. Flow cytometry nuclear staining and DNA fragmentation assays. DNA content analysis using flow cytometry was performed as described previously (Nicoletti, I., et al. J. Immunol. Methods 139:271-279, 1992). To assay nuclear morphology, cells were washed with PBS, fixed with 70% ethanol for 1 h, and stained with Hoechst 33258 (1 mM) for 30 min. The nuclear morphology of cells was visualized by fluorescence microscope (OLYMPUS BH2). DNA fragmentation was assayed as described previously (Grant, S., et al. Cancer Res. 52:6270-6278, 1992).
Example 1 was designed to determine if MCP is involved in the survival signaling pathway(s) and if inhibition of MCP activity induces apoptosis. Human Jurkat T cells were treated with 30 μM Compound A for 4 h. […] Both the p112 and p115 forms of RB as p112-115/RB were combined and used as an apoptosis marker.
When human Jurkat T cells were treated with 15 μM Compound A for 8 h, there was a 23% increase in the apoptotic population with sub-G1 DNA content (FIG. 2, panels b vs. a). By comparison, when Compound B was used, only an 8%-increase in sub-G1 population was detected (FIG. 2, panels c vs. a).

[3] = system: human prostate cancer DU145 cells; assay: Detachment and apoptotic nuclear changes in DU145 cells; format: cell-based; details: DU145, 16 h
Protocol: as §1, §2
Similar to PC-3, about half of human prostate cancer DU145 cells became detached after exposure to Compound A for 16 h.

IC50 [1]: 2 nM
SMILES: CC(C)C[C@@H](C=O)NC(=O)[C@@H](CCCNC(=N)N[N+](=O)[O-])NC(=O)C(CCCCCCCCN1C(=O)c2ccccc2C1=O)C1CCCC1 (some centres unmarked) [Compound A]
Increase in the apoptotic population with sub-G1 DNA content ([2]; 15 μM, 8 h): 23% | Induction of apoptosis (sub-G1 DNA content, nuclear condensation/fragmentation, internucleosomal DNA fragmentation) ([2]; 30 μM, 4 h): apoptosis occurred | Detached cells [3]: about half | Nuclear morphology [3]: Almost all the detached and even the attached DU145 cells exhibited apoptosis-specific nuclear morphology

Reference: patent US20010012854A1, “MULTICATALYTIC PROTEASE INHIBITORS FOR USE AS ANTI-TUMOR AGENTS” (priority 1997, published 2001)
